Experimental data published in PubChem BioAssay (NCI).
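Results reflect a 48-hour exposure of cells in 96-well plates to compound at five concentrations. Definition used: TGI = concentration required for complete inhibition of growth.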

How the values were obtained:
Assay in all cases: DTP human tumour cell line panel, 48 h
OVCAR-8 ovarian = system: OVCAR-8 ovarian
UO-31 renal = system: UO-31 renal
NCI-H226 lung = system: NCI-H226 lung
HCT-15 colon = system: HCT-15 colon
NCI-H522 lung = system: NCI-H522 lung
SK-OV-3 ovarian = system: SK-OV-3 ovarian
SK-MEL-5 melanoma = system: SK-MEL-5 melanoma
MALME-3M melanoma = system: MALME-3M melanoma
HOP-92 NSCLC = system: HOP-92 NSCLC
RXF 393 renal = system: RXF 393 renal
A549 NSCLC = system: A549 NSCLC
786-0 renal = system: 786-0 renal
PC-3 prostate = system: PC-3 prostate
DU-145 prostate = system: DU-145 prostate
MDA-N = system: MDA-N
MDA-MB-435 = system: MDA-MB-435
T-47D breast = system: T-47D breast

Row | Structure (SMILES) | TGI (OVCAR-8 ovarian) | TGI (UO-31 renal) | TGI (NCI-H226 lung) | TGI (HCT-15 colon) | TGI (NCI-H522 lung) | TGI (SK-OV-3 ovarian) | TGI (SK-MEL-5 melanoma) | TGI (MALME-3M melanoma) | TGI (HOP-92 NSCLC) | TGI (RXF 393 renal) | TGI (A549 NSCLC) | TGI (786-0 renal) | TGI (PC-3 prostate) | TGI (DU-145 prostate) | TGI (MDA-N) | TGI (MDA-MB-435) | TGI (T-47D breast)
1 | CN1C(=O)c2cccc3c([N+](=O)[O-])ccc(c23)C1=O | 18.9 µM | 26.7 µM | 4.05 µM | 11 µM | 2.91 µM | 27.9 µM | 32.6 µM | 31.1 µM | 19.9 µM | 8.61 µM | 26.8 µM | 21 µM |  |  |  |  | 
2 | CCC(=O)NCC1(c2c[nH]c3ccccc23)SCCS1 | > 100 µM |  | > 100 µM | > 100 µM | > 100 µM | > 100 µM | > 100 µM | > 100 µM | > 100 µM |  | > 100 µM | > 100 µM |  |  |  |  | 
3 | CSc1ccc2c(cc1=O)C(NC(=O)c1cc(O)c(OC(=O)O)c(O)c1)CCc1cc(O)c(O)c(O)c1-2 (stereo not given) | > 90 µM | > 90 µM | 62.3 µM | 34.3 µM | 21.8 µM | > 90 µM | 29.1 µM | > 90 µM | 51.4 µM | > 90 µM | 52 µM | > 90 µM |  |  |  |  | 
4 | CCCN(CCC)C(=O)Cc1c2n(c3ccccc13)CCCc1ccccc1-2 | 29.9 µM | 27.2 µM | 28.5 µM | 23.8 µM | 25.3 µM | 29 µM | 27.4 µM | 26.8 µM | 14.7 µM | 22.4 µM | 28.2 µM | 30.6 µM |  |  |  |  | 
5 | COc1cc([C@@H]2c3cc4c(cc3[C@@H](NC(=O)c3ccc(C(C)=O)cc3)C3COC(=O)[C@@H]32)OCO4)cc(OC)c1O (stereo not given in full) | 13.7 µM | 17.6 µM | 1.93 µM | 17.3 µM | 3.89 µM | 9.46 µM | 10.3 µM | 3.33 µM | 27 µM | 72.1 µM | 2.41 µM | 1.81 µM |  |  |  |  | 
6 | CCCCCCCCCCCCCC/C(=C/OCC[N+](C)(C)C)OC(C)=O (tested in a mixture with another compound) | 4.15 µM | 30 µM | 14.7 µM | 19.5 µM | 5.07 µM | 17.1 µM | 4.92 µM | 21.2 µM | 3.75 µM | 2.45 µM | 6.87 µM | 2.34 µM | 5.27 µM | 17.1 µM | 10 µM | 7.49 µM | 
7 | CC(=O)C1CC2(c3ccccc3)C(=O)c3ccccc3N2O1 (stereo not given) | > 100 µM | > 100 µM | > 100 µM | > 100 µM | > 100 µM | > 100 µM | > 100 µM | > 100 µM | > 100 µM | > 100 µM | > 100 µM | > 100 µM |  |  |  |  | 
8 | Cc1ccc(-c2n[nH]c(CC#N)n2)cc1 | > 100 µM | > 100 µM |  | > 100 µM | > 100 µM | > 100 µM | > 100 µM | > 100 µM | > 100 µM | > 100 µM | > 100 µM | > 100 µM | > 100 µM | > 100 µM |  | > 100 µM | > 100 µM
9 | CC1(Br)C(=O)NC(=O)N([C@H]2C[C@H](O)[C@@H](CO)O2)C1N=[N+]=[N-] (stereo not given in full) | > 100 µM | > 100 µM | > 100 µM | > 100 µM | > 100 µM | > 100 µM | > 100 µM | > 100 µM | > 100 µM | > 100 µM | > 100 µM | > 100 µM |  |  |  |  | 
10 | COC(=O)[C@@H]1C[C@H]2[C@H](c3ccccc3Br)[C@@H](OC(C)=O)[C@@H](OCc3ccccc3)ON2O1 | > 100 µM | > 100 µM |  | > 100 µM |  | > 100 µM | > 100 µM |  |  | > 100 µM | > 100 µM | > 100 µM | > 100 µM | > 100 µM | > 100 µM | > 100 µM | > 100 µM
11 | CCOC(=O)NC(=O)c1cn(-c2ccc(CCOC(=O)CCCCCCCCC(=O)OCCc3ccc(-n4cc(C(=O)NC(=O)OCC)c(=O)[nH]c4=O)cc3)cc2)c(=O)[nH]c1=O | > 100 µM | > 100 µM | > 100 µM | > 100 µM |  | > 100 µM | > 100 µM | > 100 µM | 88.7 µM | > 100 µM | > 100 µM | > 100 µM |  |  |  |  | 
12 | C/C(=N\O)C(CN(C)C)C(c1ccccc1)c1c(O)c2ccccc2oc1=O (stereo not given) | > 100 µM | > 100 µM | > 100 µM | > 100 µM | > 100 µM | > 100 µM | > 100 µM | > 100 µM | > 100 µM | > 100 µM | > 100 µM | > 100 µM |  |  |  |  | 
13 | c1ccc(N=C2SC(c3ccccc3)CN2C23CC4CC(CC(C4)C2)C3)cc1 (stereo not given) | > 100 µM | > 100 µM | > 100 µM | > 100 µM | > 100 µM |  | > 100 µM | > 100 µM | > 100 µM | > 100 µM | > 100 µM | > 100 µM | > 100 µM | > 100 µM | > 100 µM | > 100 µM | 
14 | Cn1c2nc(=Nc3ccc(Cl)cc3)n3ccc4ccccc4c3c2c(=O)n1-c1ccccc1 | > 100 µM | > 100 µM | > 100 µM | > 100 µM | > 100 µM |  | > 100 µM | > 100 µM |  | > 100 µM |  | > 100 µM | > 100 µM | > 100 µM | > 100 µM | > 100 µM | > 100 µM
15 | COC(=O)C(=O)C(C(=O)C(=O)Nc1ccc([N+](=O)[O-])cc1C#N)c1nc2ccc([N+](=O)[O-])cc2[nH]c1=O (stereo not given) | > 100 µM | > 100 µM | > 100 µM | > 100 µM | > 100 µM | > 100 µM |  | > 100 µM | > 100 µM | > 100 µM | > 100 µM | > 100 µM |  |  |  |  | 
16 | CCOP(=O)(C/C(=N/NC(C)(C)C)C(=O)Nc1nc2ccc(C)cc2s1)OCC | > 100 µM | > 100 µM | > 100 µM | > 100 µM | > 100 µM | > 100 µM | > 100 µM | > 100 µM |  | > 100 µM | > 100 µM | > 100 µM |  |  |  |  | 
17 | CN(C)CC1CCC(CN(C)C)C1=NO (stereo not given) | > 100 µM | > 100 µM |  | > 100 µM | > 100 µM |  | > 100 µM | > 100 µM | > 100 µM | > 100 µM | > 100 µM | > 100 µM |  |  |  |  | 
